Data: patent US5817692A, “Endoperoxides useful as antiparasitic agents” (priority 1996, dated 1998)

test system: P. falciparum NF54; assay: antimalarial activity, P. falciparum NF54 parasites in vitro; assay type: cell-based; settings: Plasmodium falciparum, NF54, read-out: Antimalarial Activity IC50
Method: (§1) The protozoan Plasmodium falciparum is a causative agent of malaria, the single most critical infectious disease of mankind. The antimalarial activity of the endoperoxides was determined according to the method of Desjardins et al. (16) as modified by Milhous et al. (17). Briefly, the antimalarial activity of the endoperoxides was tested in a tritiated-hypoxanthine incorporation assay by determining the concentration of the test compound needed to inhibit 50% of the replication of Plasmodium falciparum (IC50) in human red blood cells.
Tables 4 and 5 show the structures and antimalarial activities of unsaturated and saturated bicyclic [2.2.2] endoperoxides of the invention. Compounds of this formula wherein R and R' are identical are particularly preferred. It is expected that compounds wherein R and R' are selected from the groups [drawing 33] will be especially useful. […]

| SMILES | IC50 |
| --- | --- |
| CC(C)(C)[Si](C)(C)OCc1ccc(C23CCCC(c4ccccc4)(CC2)OO3)cc1 (centres unmarked) [Table 6, R = CH2 OSiMe2 Bu-t] | 99 nM |
| CC(C)(C)[Si](C)(C)Oc1ccc(C23CCCC(c4ccccc4)(CC2)OO3)cc1 (centres unmarked) [Table 6, R = OSiMe2 Bu-t] | 290 nM |

same assay, conditions: Plasmodium falciparum; P. falciparum NF54 parasites in vitro; read-out: Antimalarial Activity IC50

| IC50 | SMILES |
| --- | --- |
| 89 nM | c1ccc(C23CCCC(c4ccccc4)(CC2)OO3)cc1 [Ar = Ph, X = CH2] |
| 71 nM | Fc1ccc(C23C=CC(c4ccccc4)(CC2)OO3)cc1 (centres unmarked) [R = H, R' = F] |
| 63 nM | Fc1ccc(C23CCC(c4ccc(F)cc4)(CC2)OO3)cc1 [Table 5, R = F] |
| 210 nM | c1ccc(C23CCC(c4ccccc4)(CC2)OO3)cc1 [Table 5, R = H] |
| 42 nM | Fc1ccc(C23CCCC(c4ccccc4)(CC2)OO3)cc1 (centres unmarked) [Table 6, R = F] |
| > 2500 nM | Oc1ccc(C23CCCC(c4ccccc4)(CC2)OO3)cc1 (centres unmarked) [Table 6, R = OH] |
| 140 nM | Cc1ccc(C23C=CC(c4ccc(C)cc4)(CC2)OO3)cc1 [R = Me, R' = Me] |
| 82 nM | FC(F)(F)c1ccc(C23CCC(c4ccc(C(F)(F)F)cc4)(CC2)OO3)cc1 [Table 5, R = CF3] |
| 180 nM | C1=CC2(c3ccccc3)CCC1(c1ccccc1)OO2 [n = 2] |
| 81 nM | OCc1ccc(C23CCCC(c4ccccc4)(CC2)OO3)cc1 (centres unmarked) [Table 6, R = CH2 OH] |
| 70 nM | Fc1ccc(C23C=CC(c4ccc(F)cc4)(CC2)OO3)cc1 [R = F, R' = F] |

test system: Plasmodium falciparum; assay: antimalarial activity, tritiated-hypoxanthine incorporation assay in human red blood cells; assay type: cell-based; settings: Erythrocyte, read-out: IC50 (inhibition of 50% of the replication of Plasmodium falciparum)
Method: as §1
It is particularly noted that JHU 2886 has an excellent therapeutic index (ratio of activity to toxicity). At 1 μM, JHU 2886 has a therapeutic index of 70/0, whereas at the same concentration artimisinin has a therapeutic index of 76/10 (7.6), and atovaquone has a therapeutic index of only 95/17 (5.6). […] The first two compounds are known while the following five are being disclosed for the first time. […] Compounds of this formula wherein Ar is p-FCH2 Ph or p-HOCH2 Ph and X is CH2 are also expected to be particularly useful. […]

| IC50 | SMILES |
| --- | --- |
| > 1000 nM | c1ccc(C23CCC(c4ccccc4)(CC4(CCCCC4)C2)OO3)cc1 [Ar = Ph, X = drawing 40] |
| 38 nM | Fc1ccc(C23CCCC(c4ccc(F)cc4)(CC2)OO3)cc1 [Ar = p-FPh, X = CH2] |
| 89 nM | c1ccc(C23CCCC(c4ccccc4)(CC2)OO3)cc1 [Ar = Ph, X = CH2] |
| > 1000 nM | CC1(C)CC2(c3ccccc3)CCC(c3ccccc3)(C1)OO2 [Ar = Ph, X = C(CH3)2] |
| 410 nM | C1=CC2(c3ccccc3)CCCCC1(c1ccccc1)OO2 [n = 4] |
| 650 nM | C1=CC2(c3ccccc3)CC1(c1ccccc1)OO2 [n = 1] |
| > 1000 nM | O=S1(=O)CC2(c3ccccc3)CCC(c3ccccc3)(C1)OO2 [Ar = Ph, X = SO2] |
| 150 nM | C1=CC2(c3ccccc3)CCC1(c1ccccc1)OO2 [n = 2] |
| 62 nM | COc1ccc(C23CCCC(c4ccc(OC)cc4)(CC2)OO3)cc1 [Ar = p-MeOPh, X = CH2] |
| 150 nM | C1=CC2(c3ccccc3)CCCC1(c1ccccc1)OO2 |
